5 compounds from patent US20250034184A1, “QUATERNARY PHOSPHONIUM COMPOUNDS AND USES THEREOF” (Emory University, priority 2021, published 2025) can be followed below.

Where two headings read alike, the source gives them in different places.

The subject of data set [1] is Escherichia coli (MC4100). As to the kind of experiment: microbe, parasite or virus in culture. It counts as cell-based.
Data set [2] has as its system Pseudomonas aeruginosa (PAO1). As to the kind of experiment: microbe, parasite or virus in culture. In kind it is cell-based.
In data set [3] the test system is Enterococcus faecalis (OG1RF). Put plainly: microbe, parasite or virus in culture. It counts as cell-based.
Data set [4] relates to hospital-acquired methicillin-resistant S. aureus (HA-MRSA; ATCC 33591). Put plainly: microbe, parasite or virus in culture. It counts as cell-based.
In data set [5] the test system is red blood cell (RBC).
The subject of data set [6] is A. baumannii strain ATCC 19606. In kind it is cell-based, Acinetobacter baumannii.
Data set [7] relates to methicillin-susceptible S. aureus (SH1000). Put plainly: microbe, parasite or virus in culture. It counts as cell-based.
In data set [8] the test system is community-acquired methicillin-resistant S. aureus (CA-MRSA; USA 300-0114). As to the kind of experiment: microbe, parasite or virus in culture. In kind it is cell-based.
The test system of data set [9] is A. baumannii pan-resistant clinical isolate, MRSN 17493. In kind it is cell-based, Acinetobacter baumannii.
Data set [10] deals with red blood cell (RBC). As to the kind of experiment: Red blood cell (RBC) lysis (Lysis20). The following applies: RBC lysis as proxy for toxicity.
[11] abbreviates: SH1000, […] DMSO carrier at highest test concentration (250 μM).

In the case of `CCCCCCCCCCC[n+]1ccc(CCCc2cc[n+](CCCCCCCCCCC)cc2)cc1` [2Pyr-11,11, reference compound], the MIC in data set [1] (Escherichia coli, read-out: Minimum Inhibitory Concentration E. coli) came to 2 µM; in data set [2] (Pseudomonas aeruginosa, PAO1, read-out: Minimum Inhibitory Concentration Pa), 16 µM; in data set [3] (Enterococcus faecalis, read-out: Minimum Inhibitory Concentration E. faecalis), 8 µM; in [4] (Staphylococcus aureus, read-out: Minimum Inhibitory Concentration HA-MRSA) it was 2 µM; in data set [7] (Staphylococcus aureus, MSSA, read-out: Minimum Inhibitory Concentration MSSA), 1 µM; in [8] (Staphylococcus aureus, read-out: Minimum Inhibitory Concentration CA-MRSA), 2 µM. The same compound showed a Lys20 with red blood cell (RBC) [5] of 4 µM. The figures for the MBEC in [6] and in data set [9] were 1000 µM and 500 µM, respectively.

Regarding `CCCCCCCCCC[N+](C)(C)CCCCCCCCCC.[Cl-]` [DDAC], the MBEC in data set [6] was 1000 µM; in data set [9], 500 µM.

Consider `CCCCCCCCCCCCCC[P+](CC[P+](CCCCCCCCCCCCCC)(c1ccccc1)c1ccccc1)(CC[P+](CCCCCCCCCCCCCC)(c1ccccc1)c1ccccc1)c1ccccc1` [P2P2P-14,14,14, ((phenyl(tetradecyl)phosphoniodiyl)bis(ethane-2,1-diyl))bis(diphenyl(tetradecyl)phosphonium)], for which the “Minimum Inhibitory Concentration E. coli” value in [1] (MC4100) turned out to be 250 µM. Moreover, the “Minimum Inhibitory Concentration Pa” value in data set [2] (P. aeruginosa PAO1) is over 250 µM. Further, the Lys20 in the data set with red blood cell (RBC) [10] was found to be 1 µM. In data set [3] (OG1RF), the “Minimum Inhibitory Concentration E. faecalis” value was 250 µM. Also, in [4] (ATCC 33591), the “Minimum Inhibitory Concentration HA-MRSA” value is 32 µM. For the same compound, the “Minimum Inhibitory Concentration MSSA” value in data set [7] (setting [11]) was determined as 16 µM. In [8] (USA 300-0114), the “Minimum Inhibitory Concentration CA-MRSA” value came out at 16 µM.

As for “benzalkonium chloride [BAC, reference compound]”, the “Minimum Inhibitory Concentration E. coli” value in [1] is 63 µM. Further, the “Minimum Inhibitory Concentration Pa” value in data set [2] was determined as 250 µM. For the same compound, in data set [3], the “Minimum Inhibitory Concentration E. faecalis” value was determined as 250 µM. Moreover, the “Minimum Inhibitory Concentration HA-MRSA” value in data set [4] turned out to be 8 µM. This compound came in with a Lys20 in the data set on red blood cell (RBC) [5] of 16 µM. In addition, the MBEC in [6] and in data set [9] was 2000 µM each time. In addition, the “Minimum Inhibitory Concentration MSSA” value in data set [7] was 4 µM. Also, the “Minimum Inhibitory Concentration CA-MRSA” value in data set [8] is 4 µM.

Consider octadecyltriphenylphosphonium [TPP-18], for which the “Minimum Inhibitory Concentration E. coli” value in data set [1] (MC4100) was 125 µM. Besides, in data set [2] (P. aeruginosa PAO1), the “Minimum Inhibitory Concentration Pa” value turned out to be 125 µM. This compound also registered a Lys20 in the data set on red blood cell (RBC) [10] of 4 µM. Further, the “Minimum Inhibitory Concentration E. faecalis” value in data set [3] (OG1RF) was 16 µM. Also, the “Minimum Inhibitory Concentration HA-MRSA” value in [4] (ATCC 33591) was found to be 8 µM. Further, in data set [7] (setting [11]), the “Minimum Inhibitory Concentration MSSA” value amounted to 4 µM. The “Minimum Inhibitory Concentration CA-MRSA” value in [8] (USA 300-0114) was 8 µM.
